Data reported in ChEMBL document CHEMBL1158888, “New bioactive rosigenin analogues and aromatic polyketide metabolites from the freshwater aquatic fungus Massarina tunicata” (2003).
Activity calls are given as the source filed them. The rule behind the calls is not given here.

Tests used:
Bacillus subtilis [1] = test: Antimicrobial activity against Bacillus subtilis ATCC 6051 at 200 ug/ml by standard disk assay; type: functional; conditions: read-out: IZ
Bacillus subtilis [2] = test: Antimicrobial activity against Bacillus subtilis ATCC 6051 at 200 ug/disk by standard disk assay
Staphylococcus aureus = test: Antimicrobial activity against Staphylococcus aureus ATCC 29213 at 200 ug/ml by standard disk assay; type: functional; conditions: read-out: IZ

Structure (SMILES)	zone of inhibition at 200 µg/mL (Bacillus subtilis [1])	Activity (Bacillus subtilis [2])	zone of inhibition at 200 µg/mL (Staphylococcus aureus)
C#C[C@H](O)COc1ccc(C(=O)O)cc1	15 mm		
C=C1OC(=O)[C@]2([C@H](C)CCC(=O)[C@@H]2O)[C@H]1O		inactive	
C=C1OC(=O)[C@]2([C@H](C)C=C[C@H](O)[C@@H]2O)[C@@H]1O [MASSARIGENIN A]	11 mm		
C=C1OC(=O)[C@]2([C@H](C)C=CC(=O)[C@@H]2O)[C@H]1O [MASSARIGENIN C]	9 mm		
C=C1OC(=O)[C@]2([C@H](C)C=CC(=O)[C@H]2O)[C@H]1O [MASSARIGENIN D]	14 mm		
COc1c(C)cc(O)c(C(=O)c2c(O)ccc3c2OC(C)(C)C=C3)c1C=O [MASSARININ A]	17 mm		7 mm
C[C@H]1CC(=O)c2c(coc2-c2c(O)ccc3c2OC(C)(C)C=C3)[C@@H]1O [MASSARININ B]	23 mm		12 mm
